Measurements published in US20100248390A1, “COMPOSITIONS AND METHODS FOR IDENTIFYING LIGANDS OF ODORANT RECEPTORS” (DUKE UNIVERSITY, priority 2009, published 2010).
Where “and” joins values, the source holds several entries; their conditions need not be identical. Equal values may be shown once.

Test system: mouse odorant receptors (ORs)
Test: CRE-luciferase assay of odorant receptor activation (Dual-Glo, Hana3A cells, RTP1S), dose-response EC50
Format: cell-based
Conditions: for log EC50 of odorant at MOR5-1 (0 = no response): receptor MOR5-1; for log EC50 of odorant at MOR30-1 (0 = no response): receptor MOR30-1; for log EC50 of odorant at MOR33-1 (0 = no response): receptor MOR33-1; for log EC50 of odorant at MOR40-1 (0 = no response): receptor MOR40-1; for log EC50 of odorant at MOR203-1 (0 = no response) / log EC50, MOR203-1 / log EC50 (Table 4 value), MOR203-1: receptor MOR203-1; for log EC50 of odorant at MOR260-1 (0 = no response): receptor MOR260-1; for log EC50, MOR184-1: receptor MOR184-1; for log EC50, MOR189-1 / log EC50 (Table 4 value), MOR189-1: receptor MOR189-1; for log EC50 (Table 4 value), MOR162-1: receptor MOR162-1; for log EC50 (Table 4 value), MOR170-1: receptor MOR170-1; for log EC50 (Table 4 value), MOR185-1: receptor MOR185-1; for log EC50 (Table 4 value), MOR207-1: receptor MOR207-1; for log EC50 (Table 4 value), MOR222-1: receptor MOR222-1; for log EC50 (Table 4 value), MOR273-1: receptor MOR273-1; for log EC50, MOR138-1: receptor MOR138-1; for log EC50 (Table 4 value), MOR161-1: receptor MOR161-1
[1] = receptor MOR41-1, 0 = no response
[2] = receptor MOR139-1, 0 = no response
[3] = receptor MOR271-1, 0 = no response
[4] = receptor MOR272-1, 0 = no response
[5] = receptor MOR261-1, 0 = no response

CCCCCCCCC(=O)O [Nonanoic acid]
log EC50 of odorant at MOR5-1 (0 = no response): −4.029
log EC50 of odorant at MOR18-1 (0 = no response) (receptor MOR18-1): −4.077
log EC50 of odorant at MOR30-1 (0 = no response): −4.396
log EC50 of odorant at MOR33-1 (0 = no response): −4.606
log EC50 of odorant at MOR37-1 (0 = no response) (receptor MOR37-1): −3.9
log EC50 of odorant at MOR40-1 (0 = no response): −4.128
log EC50 of odorant at MOR203-1 (0 = no response): −3.478
log EC50 of odorant at MOR260-1 (0 = no response): −4.108

C=C(C)[C@H]1CC=C(C)C(=O)C1 [(+)-Carvone]
log EC50, MOR41-1 [1]: −4.644
log EC50, MOR129-1 (receptor MOR129-1, 0 = no response): −4.145
log EC50, MOR139-1 [2]: −4.032
log EC50, MOR184-1 (0 = no response): −3.812
log EC50, MOR189-1 (0 = no response): −4.302
log EC50, MOR203-1 (0 = no response): −3.814
log EC50, MOR250-1 (receptor MOR250-1, 0 = no response): −3.938
log EC50, MOR271-1 [3]: −4.098
log EC50, MOR272-1 [4]: −4.564

C=C(C)C1CC=C(C)C(=O)C1 (single isomer, unassigned; (-)) [(−)-Carvone]
log EC50, MOR41-1 [1]: −4.257
log EC50, MOR139-1 [2]: −3.861
log EC50, MOR184-1 (0 = no response): −3.92
log EC50, MOR189-1 (0 = no response): −4.147
log EC50, MOR203-1 (0 = no response): −3.938
log EC50, MOR271-1 [3]: −4.14

CCCCCCCCCS [Nonanethiol]
log EC50 of odorant at MOR203-1 (0 = no response): −3.528
log EC50 of odorant at MOR260-1 (0 = no response): −4.488
log EC50 of odorant at MOR261-1 (0 = no response) (receptor MOR261-1): −3.376
log EC50 of odorant at MOR268-1 (0 = no response) (receptor MOR268-1): −3.589

CC(C)=CCC/C(C)=C/CO [Getaniol]
log EC50 (Table 4 value), MOR139-1 (receptor MOR139-1): −3.939
log EC50 (Table 4 value), MOR203-1: −3.622
log EC50 (Table 4 value), MOR238-1 (receptor MOR238-1): −3.843
log EC50 (Table 4 value), MOR268-1 (receptor MOR268-1): −3.897

O=C1CCOc2ccccc21 [4-Chromanone]
log EC50 (Table 4 value), MOR41-1 (receptor MOR41-1): −4.747
log EC50 (Table 4 value), MOR129-1 (receptor MOR129-1): −3.785
log EC50 (Table 4 value), MOR139-1 (receptor MOR139-1): −4.028
log EC50 (Table 4 value), MOR162-1: −4.225
log EC50 (Table 4 value), MOR170-1: −4.209
log EC50 (Table 4 value), MOR185-1: −3.833
log EC50 (Table 4 value), MOR189-1: −3.684
log EC50 (Table 4 value), MOR207-1: −3.724
log EC50 (Table 4 value), MOR222-1: −3.618
log EC50 (Table 4 value), MOR271-1 (receptor MOR271-1): −4.047
log EC50 (Table 4 value), MOR272-1 (receptor MOR272-1): −4.043
log EC50 (Table 4 value), MOR273-1: −4.201
log EC50 (Table 4 value), MOR277-1 (receptor MOR277-1): −3.415

CCCCCCCCS [Octanethiol]
log EC50 of odorant at MOR203-1 (0 = no response): −3.356

CCCCCCCO [1-Heptanol]
log EC50, MOR41-1 [1]: −3.68
log EC50, MOR203-1 (0 = no response): −3.387
log EC50, MOR261-1 [5]: −3.382
log EC50, MOR271-1 [3]: −3.47
log EC50, MOR272-1 [4]: −4.181

CC(C)=CCCC(C)CCO (single isomer, unassigned; (-)) [(−)-b-C ? inedol]
log EC50, MOR138-1 (0 = no response): −3.347
log EC50, MOR203-1 (0 = no response): −3.147

C=C(C)[C@@H]1CC[C@@H](C)C(=O)C1 [(+)-Dihydrocarvone]
log EC50, MOR41-1 [1]: −4.301
log EC50, MOR138-1 (0 = no response): −3.498
log EC50, MOR139-1 [2]: −3.637
log EC50, MOR182-1 (receptor MOR182-1, 0 = no response): −3.406
log EC50, MOR184-1 (0 = no response): −3.55
log EC50, MOR189-1 (0 = no response): −3.976
log EC50, MOR203-1 (0 = no response): −4.241
log EC50, MOR271-1 [3]: −3.987
log EC50, MOR272-1 [4]: −4.273

O=c1ccc2ccccc2o1 [Coumarin]
log EC50 (Table 4 value), MOR41-1 (receptor MOR41-1): −4.785
log EC50 (Table 4 value), MOR106-1 (receptor MOR106-1): −3.919
log EC50 (Table 4 value), MOR129-1 (receptor MOR129-1): −4.04
log EC50 (Table 4 value), MOR139-1 (receptor MOR139-1): −3.749
log EC50 (Table 4 value), MOR161-1: −3.139
log EC50 (Table 4 value), MOR162-1: −4.483
log EC50 (Table 4 value), MOR170-1: −3.989
log EC50 (Table 4 value), MOR185-1: −4.042
log EC50 (Table 4 value), MOR189-1: −3.215
log EC50 (Table 4 value), MOR207-1: −3.905
log EC50 (Table 4 value), MOR250-1 (receptor MOR250-1): −3.855
log EC50 (Table 4 value), MOR258-1 (receptor MOR258-1): −4.296
log EC50 (Table 4 value), MOR259-1 (receptor MOR259-1): −3.834

CCCCCC1=C(C)CCC1=O [Dihydroiasmone]
log EC50 (Table 4 value), MOR41-1 (receptor MOR41-1): −3.766
log EC50 (Table 4 value), MOR139-1 (receptor MOR139-1): −4.308
log EC50 (Table 4 value), MOR189-1: −3.945
log EC50 (Table 4 value), MOR205-1 (receptor MOR205-1): −4.699
log EC50 (Table 4 value), MOR271-1 (receptor MOR271-1): −4.126
log EC50 (Table 4 value), MOR272-1 (receptor MOR272-1): −4.447
log EC50 (Table 4 value), MOR273-1: −4.441

C=CCOC(=O)Cc1ccccc1 [Allyl phenylacetate]
log EC50 (Table 4 value), MOR1-1 (receptor MOR1-1): −3.581
log EC50 (Table 4 value), MOR2-1 (receptor MOR2-1): −3.253
log EC50 (Table 4 value), MOR139-1 (receptor MOR139-1): −3.625
log EC50 (Table 4 value), MOR203-1: −3.401
log EC50 (Table 4 value), MOR222-1: −3.369
log EC50 (Table 4 value), MOR223-1 (receptor MOR223-1): −4.178
log EC50 (Table 4 value), MOR236-1 (receptor MOR236-1): −4.052
log EC50 (Table 4 value), MOR258-17 (receptor MOR258-17): −3.842
log EC50 (Table 4 value), MOR261-1 (receptor MOR261-1): −3.425
log EC50 (Table 4 value), MOR268-1 (receptor MOR268-1): −3.434
log EC50 (Table 4 value), MOR271-1 (receptor MOR271-1): −4.23
log EC50 (Table 4 value), MOR272-1 (receptor MOR272-1): −4.824

CC(=O)c1ccccc1 [Acetophenone]
log EC50 (Table 4 value), MOR41-1 (receptor MOR41-1): −5.039
log EC50 (Table 4 value), MOR105-1 (receptor MOR105-1): −3.429
log EC50 (Table 4 value), MOR106-1 (receptor MOR106-1): −3.854
log EC50 (Table 4 value), MOR129-1 (receptor MOR129-1): −5.484
log EC50 (Table 4 value), MOR139-1 (receptor MOR139-1): −3.935
log EC50 (Table 4 value), MOR161-1: −3.825
log EC50 (Table 4 value), MOR162-1: −4.778
log EC50 (Table 4 value), MOR170-1: −3.9
log EC50 (Table 4 value), MOR185-1: −4.016
log EC50 (Table 4 value), MOR189-1: −3.372
log EC50 (Table 4 value), MOR207-1: −3.608
log EC50 (Table 4 value), MOR250-1 (receptor MOR250-1): −3.975
log EC50 (Table 4 value), MOR258-1 (receptor MOR258-1): −3.358
log EC50 (Table 4 value), MOR271-1 (receptor MOR271-1): −4.05
log EC50 (Table 4 value), MOR272-1 (receptor MOR272-1): −3.922

CCCCCCCC(=O)O [Octanoic Acid]
log EC50 of odorant at MOR5-1 (0 = no response): −3.711
log EC50 of odorant at MOR23-1 (0 = no response) (receptor MOR23-1): −5.053
log EC50 of odorant at MOR25-1 (0 = no response) (receptor MOR25-1): −3.689
log EC50 of odorant at MOR30-1 (0 = no response): −3.68
log EC50 of odorant at MOR33-1 (0 = no response): −4.212
log EC50 of odorant at MOR40-1 (0 = no response): −3.617

CC(=O)OCc1ccccc1 [Benzyl acetate]
log EC50 (Table 4 value), MOR41-1 (receptor MOR41-1): −3.972
log EC50 (Table 4 value), MOR139-1 (receptor MOR139-1): −3.729
log EC50 (Table 4 value), MOR203-1: −3.531
log EC50 (Table 4 value), MOR223-1 (receptor MOR223-1): −3.841
log EC50 (Table 4 value), MOR261-1 (receptor MOR261-1): −3.352
log EC50 (Table 4 value), MOR271-1 (receptor MOR271-1): −5.379
log EC50 (Table 4 value), MOR272-1 (receptor MOR272-1): −4.948

CCCCCCCCCCO [1-Decanol]
log EC50, MOR203-1 (0 = no response): −3.299
log EC50, MOR261-1 [5]: −3.273

CC(=O)Oc1ccccc1 [Phenyl acetate]
log EC50 of odorant at MOR41-1 (0 = no response) (receptor MOR41-1): −4.143
log EC50 of odorant at MOR106-1 (0 = no response) (receptor MOR106-1): −3.874
log EC50 of odorant at MOR139-1 (0 = no response) (receptor MOR139-1): −3.421 and −3.385
log EC50 of odorant at MOR223-1 (0 = no response) (receptor MOR223-1): −3.487
log EC50 of odorant at MOR250-1 (0 = no response) (receptor MOR250-1): −3.545
log EC50 of odorant at MOR258-1 (0 = no response) (receptor MOR258-1): −3.099
log EC50 of odorant at MOR271-1 (0 = no response) (receptor MOR271-1): −5.033
log EC50 of odorant at MOR272-1 (0 = no response) (receptor MOR272-1): −5.098
